Measured values as given in US20130177627A1, “Growth inhibitory effects of nanoparticles containing triterpene glycosides or triterpenes” (priority 2011, published 2013).
Values after ≈ are worked out from the molar mass of the structure shown. Values joined by “and” are separate entries in the source; they are usually repeats but may differ in a detail not shown here. Equal entries are not always repeated. “Also recorded” adds a separate entry of the source. Where two headings read alike, the source gives them in different places.

Columns and labels:
[1] = test system: MCF7 human breast cancer cells; test: MTT growth inhibition assay on MCF7 cells; format: cell-based
[2] = test system: MDA-MB-453 human breast cancer cells; test: MTT growth inhibition assay and combination index on MDA-MB-453 cells
Procedure: MTT assay: the MTT (3-(4,5-dimethyl-2-thiazol)-2,5-diphenyl-2H tetrazolilum bromide) cell proliferation assay system (Roche Diagnostic, Mannheim, Germany) was used to determine the sensitivity of the various cell lines to agents. Cells were seeded at 1×10^4 cells/well in 96-well plates and allowed to attach for 24 h. The medium was replaced with fresh medium containing DMSO or compound. The cells were treated for 96 or 120 h, after which they were incubated with MTT reagents and the absorbance read at 650 and 575 nm.
The results of the MTT assay were analyzed for possible synergistic effects using the median effect principle.

[3] = test system: HT29 human colon cancer cells; test: MTT growth inhibition assay on HT29 cells; format: cell-based
293T(null) cells = test: MTT growth inhibition assay on 293T(null) cells; format: cell-based; conditions: Homo sapiens, HEK-293T, 96 h MTT, FIG. 10B
[4] = test system: 293T(NF-κB) stably transformed cells; test: MTT growth inhibition assay on 293T(NF-κB) cells; format: cell-based; conditions: Homo sapiens, HEK-293T, 96 h MTT, FIG. 10B
MCF7 cells = test: Calcium release, cells preloaded with Fura-2, MCF7; format: cell-based, human
Procedure: (§1) Methods: To reveal signaling pathways, human breast and colon cancer, as well as 293T(NK-kB), cells were treated with actein, alone or combined with specific inhibitors. Effects were measured using the MTT, luciferase, promoter and Western blot assays and histology. To assess effects on calcium release, cells were preloaded with the calcium sensitive dye Fura-2. To enhance bioavailability, actein was conjugated to nanoparticle liposomes.
(§2) To elucidate the primary targets of actein, the effect of actein on calcium release was assessed. Cells were preloaded with the calcium sensitive dye Fura-2, which binds to calcium ions inside the cell. […] The effect was dose dependent in that it was stronger at 10 μM than at 10 nM in MCF7 breast cancer cells (FIG. 7A, B). […] The increase in calcium level was more sustained at the higher dose of actein (10 μM)) versus 10 nM and it continued longer for MDA-MB-453 than for MCF7 breast cancer cells (FIG. 7C).

MDA-MB-453 cells = test: Calcium release, cells preloaded with Fura-2, MDA-MB-453; format: cell-based, human; conditions: MDA-MB-453, FIG. 7C
Procedure: as §1, §2

HT29 cells = test: Calcium release, cells preloaded with Fura-2, HT29; format: cell-based, human
Procedure: as §1, §2

[5] = test system: NFκB transcription factor; test: NF-kB luciferase assay in 293T cells; format: cell-based; conditions: 293T(NF-κB) cells
Procedure: A luciferase reporter construct is integrated in 293T cells and is regulated by 6 copies of the NFκB response element. The assay to monitor the activity of NFκB transcription factor was performed as described in the manufacturer's instructions (Panomics, Freemont, Calif.).

IKKβ protein = test: Western blot analysis of IKKβ; format: cell-based; conditions: 3 h, FIG. 10C
Procedure: Cells were treated for increasing times, in media containing serum, with approximately the IC50 and twice the IC50 concentration, measured at 48 h, of actein. Western blot analysis was performed as previously described (Einbond et al., 2004). The membrane was incubated with the primary antibody IKKβ (Santa Cruz Biotechnology; Santa Cruz, Calif.); β-actin was used as a loading control.

[6] = test system: MDA-MB-453 breast cancer cells; test: Gene expression analysis in MDA-MB-453 cells; format: cell-based, human; conditions: actein 20 μg/ml
Procedure: Gene expression analysis was performed as previously described in vitro (Einbond et al., 2007)
AffyLimma analysis: To identify individual alterations in gene expression induced by treatment, an unbiased informatics analysis was performed using the AffyLimmaGUI package in the open-source Bioconductor suite, as previously described [Einbond et al., 2007.]

rat liver [7] = test: Gene expression in rat liver after actein; format: in vivo; conditions: gene expression analysis
Na+/K+-ATPase = conditions: Einbond et al., 2008, cited from earlier work
rat liver [8] = conditions: cited from earlier work
[9] = test system: NF-kB promoter activity, p-Erk, p-Akt, cyclin D1; conditions: later times (24 h), Einbond et al., 2008; cited from earlier work
[10] = test system: breast cancer cell growth; conditions: Einbond et al., 2008; cited from earlier work
[11] = Homo sapiens, MDA-MB-453, read-out: IC50, agent alone

Question: Which IC50 ([1]; MCF7, 96 h, read-out: IC50, concentration that caused 50% inhibition of cell growth) does the source give for `CC(=O)O[C@@H]1C[C@@]23C[C@@]24CC[C@H](O[C@@H]2OC[C@@H](O)[C@H](O)[C@H]2O)C(C)(C)[C@@H]4CC[C@H]3[C@]2(C)C[C@@H]3O[C@]4(C[C@@H](C)[C@@H]3[C@@]12C)O[C@H](O)[C@@]1(C)O[C@@H]41` [actein] here?
Answer: ~30 µM

Question: What about the viability at 5 µg/mL ([1]; MCF7, actein 5 μg/ml alone or plus U0126 10 μM, read-out: percent viable cells) of the same compound?
Answer: 79.2%

Question: What about the IC50 ([1]; MCF7, actein alone or combined with MEK inhibitor U0126, FIG. 6B, read-out: IC50, growth inhibition) of the same compound?
Answer: 20 µg/mL

Question: And the IC50 ([2]; Homo sapiens, MDA-MB-453, 96 h, read-out: IC50, concentration that caused 50% inhibition of cell growth)?
Answer: ~8 µg/mL and ~12 µM

Question: And the IC50 [2, 11]?
Answer: 25 µg/mL

Question: What about the IC50 ([2]; Homo sapiens, MDA-MB-453, read-out: IC50, growth inhibition) of the same compound?
Answer: 23 µg/mL

Question: And the “ability of actein to potentiate the effects of thapsigargin” value ([2]; MDA-MB-453, FIG. 8A, B)?
Answer: enhanced the effects of thapsigargin

Question: What about the IC50 ([3]; Homo sapiens, HT-29, 96 h, read-out: IC50, concentration that caused 50% inhibition of cell growth) of the same compound?
Answer: ~24 µg/mL and ~35 µM

Question: And the viability at 10 µg/mL ([3]; Homo sapiens, HT-29, HT29, actein 10 μg/ml alone or plus U0126 10 μM, read-out: percent viable cells)?
Answer: 79.1%

Question: What about the IC50 ([3]; Homo sapiens, HT-29, HT29, actein alone or combined with MEK inhibitor U0126, FIG. 6C, read-out: IC50, growth inhibition) of the same compound?
Answer: 30 µg/mL

Question: What about the IC50 (293T(null) cells) of the same compound?
Answer: 75 µg/mL (≈ 111 µM)

Question: And the IC50 [4]?
Answer: 38 µg/mL (≈ 56.1 µM)

Question: What about the “calcium release (action potential, Fura-2)” value (MCF7 cells; MCF7, actein 10 nM and 10 μM, FIG. 7A, B) of the same compound?
Answer: induced an increase in action potential indicating calcium release

Question: What about the “intracellular calcium (ion concentration) levels” value (MCF7 cells; MCF7, actein 100 nM or 100 μM, FIG. 4) of the same compound?
Answer: significantly increases intracellular calcium

Question: And the “time course of the calcium effect” value (MCF7 cells; MCF7 breast cancer cells)?
Answer: immediate and transient

Question: And the “calcium release (action potential, Fura-2)” value (MDA-MB-453 cells)?
Answer: induced an increase in action potential indicating calcium release

Question: What about the “calcium release (action potential, Fura-2)” value (HT29 cells) of the same compound?
Answer: induced an increase in action potential indicating calcium release

Question: And the “effect on 293T cells stably transformed with the NF-κB plasmid (FIG. 10A NF-kB activity)” value [5]?
Answer: did not increase cell proliferation

Question: What about the “level of IKKβ protein” value (IKKβ protein) of the same compound?
Answer: decreased the level of IKKβ protein in a dose dependent manner

Question: And the “expression of the inflammatory pathway, cytokine-cytokine interaction” value ([6]; 6 h, up EPOR, down CXCR4, TRAF5, IL17RB)?
Answer: significantly modulated

Question: What about the “expression of the MAPK signaling pathway” value ([6]; gene (up) HSPA1A) of the same compound?
Answer: significantly altered

Question: What about the “expression of the inflammatory gene CXCR4 in rat liver tissue” value (rat liver [7]) of the same compound?
Answer: reduced the expression

Question: And the “activity of the purified Na-K ATPase” value (Na+/K+-ATPase; 2007)?
Answer: inhibits the activity of the purified Na+/K+-ATPase; also recorded: inhibited the activity of the purified Na-K ATPase

Question: What about the “combination with digitoxin on Na/K ATPase activity” value (Na+/K+-ATPase) of the same compound?
Answer: synergized with digitoxin

Question: And the “genes erythropoietin, CYP2C and ATP synthase in rat liver” value (rat liver [8]; actein 35.7 mg/kg for 6 h, rat liver (Einbond et al., 2009))?
Answer: downregulated

Question: And the “responses elicited in rat liver in vivo” value (rat liver [8]; rat liver)?
Answer: elicited stress and statin-associated responses

Question: What about the “level of NF-kB promoter activity, p-Erk, p-Akt and cyclin D1 protein” value [9] of the same compound?
Answer: reduced

Question: What about the “combination with digitoxin on breast cancer cell growth” value [10] of the same compound?
Answer: synergized with digitoxin

Question: Which results are given for `C/C=C(/C)C(=O)O[C@H]1C(C)=C2[C@H]([C@@H]1OC(=O)CCCCCCC)[C@@](C)(OC(C)=O)C[C@H](OC(=O)CCC)[C@@]1(O)[C@H]2OC(=O)[C@@]1(C)O` [thapsigargin, reference compound]?
Answer: IC50 [2, 11]: 0.018 µg/mL; viability at 0.01 µg/mL ([2]; Homo sapiens, MDA-MB-453, read-out: percent viable cells): 76.3%

Question: What does the source list for heparin [reference compound]?
Answer: effect of heparin on the growth inhibitory effects of actein ([3]; HT29 colon cancer cells): partially blocked; effect of heparin on actein-induced calcium release (MDA-MB-453 cells): completely blocked
